Measurements: ChEMBL document CHEMBL4052687, “Synthesis of MeON-neoglycosides of digoxigenin with 6-deoxy- and 2,6-dideoxy-d-glucose derivatives and their anticancer activity” (2017)
Active and inactive are the calls of the source. The rule behind the calls is not given here.

How the values were obtained:
NCI-H460 [1] = assay: Cytotoxicity in human NCI-H460 cells assessed as cell viability at 50 nM incubated for 48 hrs by MTT assay; format: functional; details: NCI-H460, 48 h, read-out: Activity
[2] = biological target: Nuclear receptor subfamily 4immunitygroup A member 1 (Homo sapiens) (UniProt P22736); assay: Induction of Nur77 protein translocation from nucleus to cytoplasm in human NCI-H460 cells at 20 nM incubated for 3 hrs by immunofluorescence microscopy; format: cell-based
NCI-H460 [3] = assay: Induction of Nur77 protein expression in human NCI-H460 cells at 20 nM incubated for 3 hrs by Western blot method relative to digoxin; format: functional, cell-based

Nuclear receptor subfamily 4immunitygroup A member 1 (Homo sapiens), sequence (P22736 whole entry): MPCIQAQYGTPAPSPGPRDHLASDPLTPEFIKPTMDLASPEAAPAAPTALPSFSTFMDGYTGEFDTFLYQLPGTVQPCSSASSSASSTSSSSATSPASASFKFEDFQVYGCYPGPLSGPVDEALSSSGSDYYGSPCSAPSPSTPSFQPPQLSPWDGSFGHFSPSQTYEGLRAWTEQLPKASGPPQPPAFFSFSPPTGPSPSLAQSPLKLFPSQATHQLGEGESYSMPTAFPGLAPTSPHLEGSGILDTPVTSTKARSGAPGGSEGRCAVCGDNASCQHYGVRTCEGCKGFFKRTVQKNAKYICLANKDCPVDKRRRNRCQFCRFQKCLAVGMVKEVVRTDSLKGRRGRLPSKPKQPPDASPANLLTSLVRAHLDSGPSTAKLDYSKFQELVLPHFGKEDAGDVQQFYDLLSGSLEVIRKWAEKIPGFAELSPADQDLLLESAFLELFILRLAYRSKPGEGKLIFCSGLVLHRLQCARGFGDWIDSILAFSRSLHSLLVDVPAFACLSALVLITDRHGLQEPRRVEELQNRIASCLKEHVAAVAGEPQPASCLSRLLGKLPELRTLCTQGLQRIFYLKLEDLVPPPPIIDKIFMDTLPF

Structure (SMILES)	viability at 0.05 µM (NCI-H460 [1])	Activity [2]	Activity (NCI-H460 [3])
CON([C@H]1CC[C@@]2(C)[C@H](CC[C@@H]3[C@@H]2C[C@@H](O)[C@]2(C)[C@@H](C4=CC(=O)OC4)CC[C@]32O)C1)[C@@H]1O[C@H](CO)[C@@H](O)[C@H](O)[C@H]1O	> 90%		
CO[C@@H]1C[C@H](N(OC)[C@H]2CC[C@@]3(C)[C@H](CC[C@@H]4[C@@H]3C[C@@H](O)[C@]3(C)[C@@H](C5=CC(=O)OC5)CC[C@]43O)C2)O[C@H](C)[C@H]1O	> 90%		
CO[C@@H]1[C@@H](O)[C@H](OC)[C@@H](C)O[C@H]1N(OC)[C@@H]1CC[C@@]2(C)[C@H](CC[C@@H]3[C@@H]2C[C@@H](O)[C@]2(C)[C@@H](C4=CC(=O)OC4)CC[C@]32O)C1	> 90%	Active	
CON([C@@H]1CC[C@@]2(C)[C@H](CC[C@@H]3[C@@H]2C[C@@H](O)[C@]2(C)[C@@H](C4=CC(=O)OC4)CC[C@]32O)C1)[C@@H]1O[C@H](CO)[C@@H](O)[C@H](O)[C@H]1O	> 90%	Active	
CON([C@@H]1CC[C@@]2(C)[C@H](CC[C@@H]3[C@@H]2C[C@@H](O)[C@]2(C)[C@@H](C4=CC(=O)OC4)CC[C@]32O)C1)[C@@H]1O[C@H](C)[C@@H](O)[C@H](O)[C@H]1O	> 90%		Active
CO[C@@H]1[C@@H](O)[C@H](O)[C@@H](C)O[C@H]1N(OC)[C@@H]1CC[C@@]2(C)[C@H](CC[C@@H]3[C@@H]2C[C@@H](O)[C@]2(C)[C@@H](C4=CC(=O)OC4)CC[C@]32O)C1	> 90%		Active
CO[C@@H]1C[C@H](N(OC)[C@@H]2CC[C@@]3(C)[C@H](CC[C@@H]4[C@@H]3C[C@@H](O)[C@]3(C)[C@@H](C5=CC(=O)OC5)CC[C@]43O)C2)O[C@H](C)[C@H]1O	> 90%	Active	
CO[C@@H]1[C@@H](OC)[C@H](O)[C@@H](C)O[C@H]1N(OC)[C@@H]1CC[C@@]2(C)[C@H](CC[C@@H]3[C@@H]2C[C@@H](O)[C@]2(C)[C@@H](C4=CC(=O)OC4)CC[C@]32O)C1	> 90%	Active	
CO[C@@H]1[C@@H](O)[C@H](N(OC)[C@@H]2CC[C@@]3(C)[C@H](CC[C@@H]4[C@@H]3C[C@@H](O)[C@]3(C)[C@@H](C5=CC(=O)OC5)CC[C@]43O)C2)O[C@H](C)[C@H]1OC	> 90%	Active	
CO[C@H]1[C@H](O)[C@@H](O)[C@H](N(OC)[C@H]2CC[C@@]3(C)[C@H](CC[C@@H]4[C@@H]3C[C@@H](O)[C@]3(C)[C@@H](C5=CC(=O)OC5)CC[C@]43O)C2)O[C@@H]1C	> 90%		
CO[C@@H]1[C@@H](O)[C@H](N(OC)[C@H]2CC[C@@]3(C)[C@H](CC[C@@H]4[C@@H]3C[C@@H](O)[C@]3(C)[C@@H](C5=CC(=O)OC5)CC[C@]43O)C2)O[C@H](C)[C@H]1O	> 90%	Active	
CON([C@@H]1CC[C@@]2(C)[C@H](CC[C@@H]3[C@@H]2C[C@@H](O)[C@]2(C)[C@@H](C4=CC(=O)OC4)CC[C@]32O)C1)[C@H]1O[C@@H](CO)[C@H](O)[C@@H](O)[C@@H]1O	> 90%		Active
CO[C@H]1[C@H](O)[C@@H](O)[C@H](N(OC)[C@@H]2CC[C@@]3(C)[C@H](CC[C@@H]4[C@@H]3C[C@@H](O)[C@]3(C)[C@@H](C5=CC(=O)OC5)CC[C@]43O)C2)O[C@@H]1C	> 90%		
CO[C@@H]1[C@@H](OC)[C@H](O)[C@@H](C)O[C@H]1N(OC)[C@H]1CC[C@@]2(C)[C@H](CC[C@@H]3[C@@H]2C[C@@H](O)[C@]2(C)[C@@H](C4=CC(=O)OC4)CC[C@]32O)C1	> 90%		
CO[C@@H]1[C@@H](C)O[C@@H](N(OC)[C@@H]2CC[C@@]3(C)[C@H](CC[C@@H]4[C@@H]3C[C@@H](O)[C@]3(C)[C@@H](C5=CC(=O)OC5)CC[C@]43O)C2)C[C@H]1OC	> 90%		
CO[C@@H]1[C@@H](O)[C@H](OC)[C@@H](C)O[C@H]1N(OC)[C@H]1CC[C@@]2(C)[C@H](CC[C@@H]3[C@@H]2C[C@@H](O)[C@]2(C)[C@@H](C4=CC(=O)OC4)CC[C@]32O)C1	> 90%	Active	Active
CO[C@@H]1[C@@H](O)[C@H](O)[C@@H](C)O[C@H]1N(OC)[C@H]1CC[C@@]2(C)[C@H](CC[C@@H]3[C@@H]2C[C@@H](O)[C@]2(C)[C@@H](C4=CC(=O)OC4)CC[C@]32O)C1	> 90%		
CON[C@H]1CC[C@@]2(C)[C@H](CC[C@@H]3[C@@H]2C[C@@H](O)[C@]2(C)[C@@H](C4=CC(=O)OC4)CC[C@]32O)C1			inactive
CON([C@H]1CC[C@@]2(C)[C@H](CC[C@@H]3[C@@H]2C[C@@H](O)[C@]2(C)[C@@H](C4=CC(=O)OC4)CC[C@]32O)C1)[C@H]1O[C@@H](CO)[C@H](O)[C@@H](O)[C@@H]1O	> 90%	Active	Active
CO[C@@H]1[C@@H](C)O[C@@H](N(OC)[C@H]2CC[C@@]3(C)[C@H](CC[C@@H]4[C@@H]3C[C@@H](O)[C@]3(C)[C@@H](C5=CC(=O)OC5)CC[C@]43O)C2)C[C@H]1OC	> 90%		
CO[C@@H]1[C@@H](O)[C@H](N(OC)[C@@H]2CC[C@@]3(C)[C@H](CC[C@@H]4[C@@H]3C[C@@H](O)[C@]3(C)[C@@H](C5=CC(=O)OC5)CC[C@]43O)C2)O[C@H](C)[C@H]1O	> 90%		
CO[C@@H]1[C@@H](O)[C@H](N(OC)[C@H]2CC[C@@]3(C)[C@H](CC[C@@H]4[C@@H]3C[C@@H](O)[C@]3(C)[C@@H](C5=CC(=O)OC5)CC[C@]43O)C2)O[C@H](C)[C@H]1OC	> 90%		
CON([C@H]1CC[C@@]2(C)[C@H](CC[C@@H]3[C@@H]2C[C@@H](O)[C@]2(C)[C@@H](C4=CC(=O)OC4)CC[C@]32O)C1)[C@@H]1O[C@H](C)[C@@H](O)[C@H](O)[C@H]1O	> 90%		
CON[C@@H]1CC[C@@]2(C)[C@H](CC[C@@H]3[C@@H]2C[C@@H](O)[C@]2(C)[C@@H](C4=CC(=O)OC4)CC[C@]32O)C1			inactive
